Reference: patent publication US10093658B2, “Bifunctional compounds and use for reducing uric acid levels” (Acquist LLC, priority 2015, dated 2018)
“And” between values parts separate entries of the source, which are not always exact repeats. Identical values can stand only once. Like-named read-outs stand apart in the source and are kept apart here.

Columns and labels:
Xanthine oxidase = Xanthine oxidase (Homo sapiens (Human), UniProt P47989); assay: Fluorescence-based xanthine oxidase activity assay; assay type: biochemical; settings: for XO inhibition (in words): qualitative statement
Xanthine oxidase, sequence (P47989 whole entry, species assumed): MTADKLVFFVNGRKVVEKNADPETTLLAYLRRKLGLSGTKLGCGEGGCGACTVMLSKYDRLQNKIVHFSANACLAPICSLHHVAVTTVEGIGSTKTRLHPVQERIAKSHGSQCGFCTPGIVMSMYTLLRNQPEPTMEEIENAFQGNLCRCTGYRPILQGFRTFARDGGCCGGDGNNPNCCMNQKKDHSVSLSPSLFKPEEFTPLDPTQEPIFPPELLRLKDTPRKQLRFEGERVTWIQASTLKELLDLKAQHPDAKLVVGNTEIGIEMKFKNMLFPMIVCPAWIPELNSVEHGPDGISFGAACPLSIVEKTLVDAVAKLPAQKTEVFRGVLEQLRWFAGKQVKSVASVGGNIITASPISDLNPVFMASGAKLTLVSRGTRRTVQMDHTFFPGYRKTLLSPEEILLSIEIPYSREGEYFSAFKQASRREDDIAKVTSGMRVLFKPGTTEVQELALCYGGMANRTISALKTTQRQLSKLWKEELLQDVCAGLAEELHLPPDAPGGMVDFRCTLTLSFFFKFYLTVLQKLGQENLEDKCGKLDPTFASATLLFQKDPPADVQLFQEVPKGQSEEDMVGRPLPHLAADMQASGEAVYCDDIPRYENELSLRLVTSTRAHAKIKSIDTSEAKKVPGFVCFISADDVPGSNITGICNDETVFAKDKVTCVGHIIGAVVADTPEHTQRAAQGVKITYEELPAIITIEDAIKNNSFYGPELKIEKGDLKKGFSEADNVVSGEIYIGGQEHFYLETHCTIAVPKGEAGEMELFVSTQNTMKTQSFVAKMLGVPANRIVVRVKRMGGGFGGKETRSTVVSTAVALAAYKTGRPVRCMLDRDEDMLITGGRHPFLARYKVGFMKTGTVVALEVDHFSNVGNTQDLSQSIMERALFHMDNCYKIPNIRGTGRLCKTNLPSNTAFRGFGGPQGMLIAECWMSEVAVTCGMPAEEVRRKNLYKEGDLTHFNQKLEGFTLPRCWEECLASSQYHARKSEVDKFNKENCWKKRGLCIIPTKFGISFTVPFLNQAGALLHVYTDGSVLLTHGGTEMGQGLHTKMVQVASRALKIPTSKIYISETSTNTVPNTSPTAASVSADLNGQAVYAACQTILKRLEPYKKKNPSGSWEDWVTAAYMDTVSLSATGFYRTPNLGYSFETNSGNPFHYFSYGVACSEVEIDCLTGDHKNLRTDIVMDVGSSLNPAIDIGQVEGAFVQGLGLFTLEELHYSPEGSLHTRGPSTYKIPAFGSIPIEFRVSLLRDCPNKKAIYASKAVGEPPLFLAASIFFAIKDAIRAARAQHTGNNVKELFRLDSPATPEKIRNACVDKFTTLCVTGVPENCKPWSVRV

URAT1 (SLC22A12) = URAT1 (SLC22A12) (Homo sapiens (Human), UniProt Q96S37); assay: URAT1 (SLC22A12) cellular uptake assay, 3H-orotate transport in stably transfected URAT-1/CHO cells; settings: for URAT1 inhibition (in words): qualitative statement
URAT1 (SLC22A12), sequence (Q96S37 whole entry): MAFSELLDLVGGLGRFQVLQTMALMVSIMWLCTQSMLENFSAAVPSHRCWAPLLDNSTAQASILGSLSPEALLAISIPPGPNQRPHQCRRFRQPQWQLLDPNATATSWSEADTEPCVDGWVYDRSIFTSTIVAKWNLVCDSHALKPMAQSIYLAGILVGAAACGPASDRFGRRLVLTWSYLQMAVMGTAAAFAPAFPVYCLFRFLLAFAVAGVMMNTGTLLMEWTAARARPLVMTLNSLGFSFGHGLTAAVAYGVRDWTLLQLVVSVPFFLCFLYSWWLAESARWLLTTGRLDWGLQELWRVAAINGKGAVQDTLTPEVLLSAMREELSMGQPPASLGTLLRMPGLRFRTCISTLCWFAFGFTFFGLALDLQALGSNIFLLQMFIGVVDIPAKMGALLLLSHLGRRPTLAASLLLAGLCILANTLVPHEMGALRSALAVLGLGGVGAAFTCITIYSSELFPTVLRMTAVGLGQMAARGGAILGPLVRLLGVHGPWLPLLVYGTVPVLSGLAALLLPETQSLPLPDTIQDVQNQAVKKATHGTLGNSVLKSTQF

[1] = fluorescence-based assay, triplicate, 10 concentrations, read-out: Xanthine Oxidase IC50
[2] = read-out: URAT1 IC50, URAT-1/CHO cells, 3H-orotate uptake, URAT1 assay as described herein

SMILES	IC50 (Xanthine oxidase; [1])	IC50 (URAT1 (SLC22A12); [2]) [µM]	URAT1 inhibition (in words) (URAT1 (SLC22A12))	XO inhibition (in words) (Xanthine oxidase)	IC50 (URAT1 (SLC22A12)) [µM]	IC50 (Xanthine oxidase) [µM]
CS(=O)(=O)Nc1ccc(NC(=O)c2c(O)[nH]c(=O)[nH]c2=O)cc1 [Formula (Ib), 6-hydroxy-N-(4-(methylsulfonamido)phenyl)-2,4-dioxo-1,2,3,4-tetrahydropyrimidine-5-carboxamide]	87 µM	–	–	–	–	–
O=C(Nc1ccc2n[nH]nc2c1)c1c(O)[nH]c(=O)[nH]c1=O [Formula (IIIa), N-(1H-benzo[d][1,2,3]triazol-6-yl)-6-hydroxy-2,4-dioxo-1,2,3,4-tetrahydropyrimidine-5-carboxamide]	8.93 µM	1.34	–	–	–	–
O=C(Nc1ccc(-c2nnn[nH]2)cc1)c1c(O)[nH]c(=S)[nH]c1=O [Formula (IIb), N-(4-(2H-tetrazol-5-yl)phenyl)-6-hydroxy-4-oxo-2-thioxo-1,2,3,4-tetrahydropyrimidine-5-carboxamide]	0.39 µM	147	–	–	–	–
O=C(Nc1ccc(NS(=O)(=O)C(F)(F)F)cc1)c1c(O)[nH]c(=O)[nH]c1=O [Formula (Ic), 6-hydroxy-2,4-dioxo-N-(4-(trifluoromethylsulfonamido)phenyl)-1,2,3,4-tetrahydropyrimidine-5-carboxamide]	201 µM	–	–	–	–	–
NS(=O)(=O)c1ccc(NC(=O)c2c(O)[nH]c(=O)[nH]c2=O)cc1 [Formula (Ia), 6-hydroxy-2,4-dioxo-N-(4-sulfamoylphenyl)-1,2,3,4-tetrahydropyrimidine-5-carboxamide]	≥ 300 µM	–	–	–	–	–
O=C(Nc1ccc(-c2cnn[nH]2)cc1)c1c(O)[nH]c(=O)[nH]c1=O [Formula (IIe), N-(4-(1H-1,2,3-triazol-5-yl)phenyl)-6-hydroxy-2,4-dioxo-1,2,3,4-tetrahydropyrimidine-5-carboxamide]	1.24 µM and 1.14 µM	0.69	–	–	–	–
O=C(Nc1ccc(-c2noc(=O)[nH]2)cc1)c1c(O)[nH]c(=S)[nH]c1=O [Formula (Ig), 6-Hydroxy-4-oxo-N-(4-(5-oxo-4,5-dihydro-1,2,4-oxadiazol-3-yl)phenyl)-2-thioxo-1,2,3,4-tetrahydropyrimidine-5-carboxamide]	3.29 µM and 8.01 µM	> 150	poor URAT1 inhibitor	acceptable XO inhibitor	–	–
O=C(Nc1ccc(-c2noc(=O)[nH]2)cc1)c1c(O)[nH]c(=O)[nH]c1=O [Formula (If), 6-hydroxy-2,4-dioxo-N-(4-(5-oxo-4,5-dihydro-1,2,4-oxadiazol-3-yl)phenyl)-1,2,3,4-tetrahydropyrimidine-5-carboxamide]	4.81 µM and 7.74 µM	7.6	active against both targets	active against both targets	–	–
O=C(Nc1ccc(-n2cnnn2)cc1)c1c(O)[nH]c(=O)[nH]c1=O [Formula (IIc), N-(4-(1H-tetrazol-1-yl)phenyl)-6-hydroxy-2,4-dioxo-1,2,3,4-tetrahydropyrimidine-5-carboxamide]	20.7 µM	–	–	–	–	–
O=C(Nc1ccc(-c2cnn[nH]2)cc1)c1c(O)[nH]c(=S)[nH]c1=O [Formula (IIf), N-(4-(1H-1,2,3-triazol-5-yl)phenyl)-6-hydroxy-4-oxo-2-thioxo-1,2,3,4-tetrahydropyrimidine-5-carboxamide]	0.06 µM and 0.09 µM	11.1	–	comparable to febuxostat	–	–
O=C(Nc1ccc(-c2nnn[nH]2)cc1)c1c(O)[nH]c(=O)[nH]c1=O [Formula (IIa), N-(4-(2H-tetrazol-5-yl)phenyl)-6-hydroxy-2,4-dioxo-1,2,3,4-tetrahydropyrimidine-5-carboxamide]	0.68 µM	9.54	–	–	–	–
O=C(Nc1ccc(O)c(CO)c1)c1c(O)[nH]c(=O)[nH]c1=O [Formula (Id), 6-hydroxy-N-(4-hydroxy-3-(hydroxymethyl)phenyl)-2,4-dioxo-1,2,3,4-tetrahydropyrimidine-5-carboxamide]	3.66 µM	7.26	–	–	< 10	< 10
